Measurements: patent US7271174B2, “Metabolites of tricyclic amides useful for inhibition of G-protein function and methods of treatment of proliferative diseases” (Schering Corporation, priority 2003, dated 2007)

Biological target: purified human farnesyl protein transferase (Homo sapiens, UniProt P49354+P49356)
Assay: (H-Ras) Farnesyl Transferase Inhibition assay
Type: biochemical
Conditions: transfer of [3H] farnesyl from [3H] farnesyl pyrophosphate to biotin-CVLS peptide; 37° C., 60 minutes; SPA beads
Description: Assay Conditions for (H-Ras) FPT
FPT activity was determined by measuring the transfer of [^3H] farnesyl from [^3H] farnesyl pyrophosphate to a biotinylated peptide derived from the C-terminus of H-Ras (biotin-CVLS). […] The reaction mixture was incubated in a Vortemp shaking incubator at 37° C., 45 RPM for 60 minutes and stopped with 150 μL of 0.25 M EDTA containing 0.5% BSA and 1.3 mg/ml Streptavidin SPA beads. […] Percent inhibition was calculated relative to the vehicle control.

| IC50 [µM] | Structure (SMILES) |
| --- | --- |
| 0.0026 | NC(=O)N1CC=C(CC(=O)N2CCC([C@H]3c4ncc(Br)cc4CCc4cc(Cl)cc(Br)c43)CC2)CC1 [Compound 8, (+)-4-[2-[4-(3,10-dibromo-8-chloro-6,11-dihydro-5H-benzo[5,6]cyclohepta[1,2-b]pyridin-11(R)-yl)-1-piperidinyl]-2-oxoethyl]-3,4-didehydro-1-piperidine-carboxamide] |
| 0.0233 | NC(=O)N1CCC(=CC(=O)N2CCC([C@H]3c4ncc(Br)cc4CCc4cc(Cl)cc(Br)c43)CC2)CC1 [Compound 9, (+)-4-[2-[4-(3,10-Dibromo-8-chloro-6,11-dihydro-5H-benzo[5,6]cyclohepta[1,2-b]pyridin-11(R)-yl)-1-piperidinyl]-2-oxoethylidene]-1-piperidinecarboxamide] |
